Where two headings read alike, the source gives them in different places. Where a SMILES comes first, the peptide text is derived from it. Bridges are numbered along the chain shown (N, C = ends). Where no end group is shown, it is not given here.
Legend:
[1] = biological target: T1, Kv1.2-1.2-1.1-1.1 (reverse adjacent channel) (Rattus norvegicus, UniProt P10499+P63142); test: Whole-cell voltage-clamp (QPatch) inhibition of K+ current, reverse adjacent channel; assay type: cell-based; details: HEK-293 cells, holding −100 mV, depolarised to +60 mV
T1 construct: nucleic acids encoding the full-length Kv subunit; inter-subunit linker to next subunit (region from Xenopus beta-globin UTRs); expressed in transfected cells; host or cells: HEK-293 (pIRES2-EGFP vector)
Experimental: (§1) Whole-cell voltage-clamp experiments were performed as outlined in Sokolov, et al., Neuropharmacol. 53:2, 272-282, (2007), whose disclosure is hereby incorporated by reference. The internal solution was (in mM): 90 KCl, 50 KF, 30 KOH, 10 EGTA, 20 HEPES, pH 7.4. The extracellular bath solution contained (in mM) 135 choline chloride, 20 KOH, 1.8 CaCl2, 1 MgCl2, and 40 HEPES, pH 7.4, and 0.01% (w/v) BSA. Solutions were exchanged by continuous flow with a peristaltic pump or a Cellectricon Dynaflow-16 system. Series resistance compensation was applied to minimize the voltage error (<10 mV). Correction was made for a calculated liquid junction potential of +8.4 mV. Holding potential was −100 mV. Leak subtraction was used to isolate K^+ current (IK). Analogue traces were filtered at 5 kHz, and sampled at 50 kHz. Non-linear fitting was carried out with equations described in (Sack et al., Gen. Physiol. 128:1, 119-132, (2006), whose disclosure is hereby incorporated by reference. Data are reported as mean±standard error; n values refer to number of individual cells tested. Statistical significance was evaluated by two-tailed Student's t-test using data obtained from at least five independent experiments performed in parallel.
(§2) In these examples, the functional properties of the Kv1 heteromers Kv1.1-1.1-1.2-1.2, Kv1.1-1.2-1.1-1.2, […] and Kv1.2-1.1-1.2-1.1 were compared by whole-cell, voltage-clamp, conventional recordings from HEK-293 cells transfected separately with each of the 4 constructs.
(§3) In these examples the sensitivities of the potassium channel currents mediated by these tetramers to various blockers were also examined. Inhibition by TEA, or Agitoxinl (AgTX1) and TsTX-Kα were determined.
(§4) Whole-cell voltage-clamp was performed as described in Example 25-27, except where specified. […] Whole cell currents were measured at a holding potential of −100 mV, then depolarised to +60 mV for 200 ms or stepped from the holding potential in +10 mV increments. […]

[2] = biological target: T2, Kv1.1-1.2-1.1-1.2 (forward diagonal channel) (Rattus norvegicus, UniProt P10499+P63142); test: Whole-cell voltage-clamp (QPatch) inhibition of K+ current, diagonal channel; assay type: cell-based; details: for IC50: HEK-293 cells
T2 construct: nucleic acids encoding the full-length Kv subunit; inter-subunit linker to next subunit (region from Xenopus beta-globin UTRs); expressed in transfected cells; host or cells: HEK-293 (pIRES2-EGFP vector)
Experimental: as §1, §2, §3
(§5) Whole-cell voltage-clamp was performed as described in Example 25-27, except where specified. For larger scale recordings, an automated patch-clamp system (QPatch 16, Sophion, Denmark) was used; its disposable Qplates contain 16 individual and parallel patch-clamp positions. Cells were detached from culture plates with 0.05% trypsin/EDTA solution and kept in serum-free medium (CHO-S-SFM II [Invitrogen], 25 mM HEPES, pH 7.4, 0.04 μg/ml soya bean trypsin inhibitor, and 10 μg/ml penicillin-streptomycin) in an on-board stirred reservoir. Prior to testing, the cells were automatically transferred to an integral mini-centrifuge, pelleted, re-suspended in external solution (as detailed above) and washed before being applied to the pipeting wells in the Q plate. Giga-seals were formed upon execution of a combined suction/voltage protocol; gradually increasing suction leads to the whole-cell configuration. […] Whole cell currents were measured at a holding potential of −100 mV, then depolarised to +60 mV for 200 ms or stepped from the holding potential in +10 mV increments. […]

[3] = biological target: T3, Kv1.1-1.2 dimer-containing channel (Rattus norvegicus, UniProt P10499+P63142); test: Whole-cell voltage-clamp inhibition of K+ current, dimer-containing channel; assay type: cell-based; details: HEK-293 cells
T3 construct: expressed in transfected cells
Experimental: as §1, §2, §3, §4

[4] = biological target: T4, Kv1.1-1.1-1.2-1.2 (forward adjacent channel) (Rattus norvegicus, UniProt P10499+P63142); test: Whole-cell voltage-clamp (QPatch) inhibition of K+ current, adjacent channel; assay type: cell-based; details: for IC50: HEK-293 cells, holding −100 mV, depolarised to +60 mV
T4 construct: nucleic acids encoding the full-length Kv subunit; inter-subunit linker to next subunit (region from Xenopus beta-globin UTRs); expressed in transfected cells; host or cells: HEK-293 (pIRES2-EGFP vector)
Experimental: as §1, §2, §3, §5

[5] = biological target: T5, Kv1.2-1.1-1.2-1.1 (reverse diagonal channel) (Rattus norvegicus, UniProt P10499+P63142); test: Whole-cell voltage-clamp (QPatch) inhibition of K+ current, reverse diagonal channel; assay type: cell-based; details: HEK-293 cells
T5 construct: nucleic acids encoding the full-length Kv subunit; inter-subunit linker to next subunit (region from Xenopus beta-globin UTRs); expressed in transfected cells; host or cells: HEK-293 (pIRES2-EGFP vector)
Experimental: as §1, §2, §3, §4

[6] = biological target: T6, Kv1.1-1.1-1.2-1.2 tetramer (Rattus norvegicus, UniProt P10499+P63142); test: Competition of 125I-αDTX binding to transfected HEK-293 cells; set-up: displacement of 125I-αDTX from the tetramer: dose or concentration left out as unconfirmed; details: for displacement of 125I-αDTX from the tetramer: transfected HEK-293 cells, FIG. 4B
T6 construct: nucleic acids encoding the full-length Kv subunit; inter-subunit linker to next subunit (region from Xenopus beta-globin UTRs); expressed in transfected cells; host or cells: HEK-293 (pIRES2-EGFP vector)
Experimental: HEK 293 cells are transiently transfected with a PIRES2-EGFP vector encoding Kv1.1-1.1-1.2-1.2 (also referred to as forward adjacent channel; see below) and the cells incubated to display the potassium channels on the cell membranes.
Cells are harvested in 25 mM Tris HCl, 5 mM KCl pH 7.5 Saturatable binding of ^125I-α-dendrotoxin (DTX), a Kv1-selective toxin, was performed using a filtration assay to measure the amount of assembled channel targeted to the plasmalemma. Transfected cells suspended in binding buffer were incubated for 1 hour with increasing concentrations of labelled DTX; for non-saturable binding experiments, the incubation is performed in the presence of 1 μM unlabeled DTX. Measurements are made in triplicate under established conditions by rapid filtration through GF/F glass microfiber filters presoaked with 0.5% (w/v) polyethyleneimine. The radioactivity associated with the washed filters was quantified by γ-radiation counting.
In FIG. […]

Kv1.4-1.6-1.1-1.2 = biological target: T7, Kv1.4-1.6-1.1-1.2 (Rattus norvegicus, UniProt P10499+P15385+P17659+P63142); test: Whole-cell voltage-clamp inhibition of IK, Kv1.4-containing hetero-tetramers; assay type: cell-based; details: Kv1.4-1.6-1.1-1.2 versus Kv1.4-1.6-1.3-1.2; 1, 10, 100 nM; assayed at ≦0 mV, FIG. 10F
T7 construct: nucleic acids encoding the full-length Kv subunit; inter-subunit linker to next subunit (region from Xenopus beta-globin UTRs); expressed in transfected cells; host or cells: HEK-293
Experimental: In these examples, the functional properties of the concatenated Kv1 heteromers Kv 1.1-1.1-1.2-1.2, Kv1.4-1.6-1.1-1.2 and Kv1.4-1.6-1.3-1.2 were examined by whole-cell voltage-clamped recordings from the corresponding transfected HEK-293 cells. The activation kinetics of the currents mediated by Kv 1.1-1.1-1.2-1.2 Kv 1.4-1.6-1.1-1.2 and Kv1.4-1.6-1.3-1.2 were determined.
The sensitivities of the potassium channel currents mediated by Kv 1.1-1.1-1.2-1.2 Kv 1.4-1.6-1.1-1.2 and Kv1.4-1.6-1.3-1.2 to various blockers were also examined in these examples.
Whole-cell voltage-clamp experiments were performed as outlined in Sokolov, et al., Neuropharmacol. 53:2, 272-282, (2007), whose disclosure is hereby incorporated by reference. The internal solution was (in mM): 90 KCl, 50 KF, 30 KOH, 10 EGTA, 20 HEPES, pH 7.4. […] Correction was made for a calculated liquid junction potential of +8.4 mV. […] Non-linear fitting was carried out with equations described in (Sack et al., Gen. Physiol. 128:1, 119-132, (2006), whose disclosure is hereby incorporated by reference. Data are reported as mean±standard error; n values refer to number of individual cells tested. Statistical significance was evaluated by two-tailed Student's t-test using data obtained from at least five independent experiments performed in parallel.

[7] = unit printed in cell (row head says nM), read-out: IC50 AgTx1
[8] = holding −100 mV, depolarised to +60 mV, read-out: IC50 TEA
[9] = unit printed in cell (row head says nM), read-out: IC50 TsTxKα

T2 sequence (P10499 whole entry): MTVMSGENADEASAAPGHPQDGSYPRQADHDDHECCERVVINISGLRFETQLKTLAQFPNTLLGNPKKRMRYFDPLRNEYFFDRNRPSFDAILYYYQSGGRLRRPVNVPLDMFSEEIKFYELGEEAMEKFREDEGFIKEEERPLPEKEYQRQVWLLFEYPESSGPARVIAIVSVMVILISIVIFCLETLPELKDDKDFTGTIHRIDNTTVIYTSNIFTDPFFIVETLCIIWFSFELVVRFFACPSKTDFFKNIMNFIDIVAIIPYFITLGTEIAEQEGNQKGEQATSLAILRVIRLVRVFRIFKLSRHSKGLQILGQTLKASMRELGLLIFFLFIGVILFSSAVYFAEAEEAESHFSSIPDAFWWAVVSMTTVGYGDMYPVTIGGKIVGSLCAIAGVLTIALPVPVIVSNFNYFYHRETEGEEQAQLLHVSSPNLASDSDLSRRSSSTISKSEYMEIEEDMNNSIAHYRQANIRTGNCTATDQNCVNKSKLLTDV
T2 sequence (P63142 whole entry): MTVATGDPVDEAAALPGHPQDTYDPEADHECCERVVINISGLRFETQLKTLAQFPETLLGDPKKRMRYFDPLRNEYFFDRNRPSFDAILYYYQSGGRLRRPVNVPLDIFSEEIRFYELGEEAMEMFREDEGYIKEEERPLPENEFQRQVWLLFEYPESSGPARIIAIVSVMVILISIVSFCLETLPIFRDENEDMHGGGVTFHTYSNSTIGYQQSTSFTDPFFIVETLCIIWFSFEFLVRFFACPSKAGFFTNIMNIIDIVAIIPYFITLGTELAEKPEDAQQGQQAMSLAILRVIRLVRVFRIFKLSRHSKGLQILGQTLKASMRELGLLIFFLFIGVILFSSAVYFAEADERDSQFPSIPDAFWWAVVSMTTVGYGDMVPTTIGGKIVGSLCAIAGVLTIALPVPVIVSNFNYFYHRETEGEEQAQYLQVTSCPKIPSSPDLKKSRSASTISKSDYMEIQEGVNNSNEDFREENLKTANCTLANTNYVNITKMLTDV
T2 sequence (P10499 whole entry): as the sequence (P10499 whole entry) above
T2 sequence (P63142 whole entry): as the sequence (P63142 whole entry) above
T6 sequence (P10499 whole entry): as the sequence (P10499 whole entry) above
T6 sequence (P10499 whole entry): as above
T6 sequence (P63142 whole entry): as the sequence (P63142 whole entry) above
T6 sequence (P63142 whole entry): as above
T4 sequence (P10499 whole entry): as the sequence (P10499 whole entry) above
T4 sequence (P10499 whole entry): as above
T4 sequence (P63142 whole entry): as the sequence (P63142 whole entry) above
T4 sequence (P63142 whole entry): as above
T3 sequence (P10499 whole entry): as the sequence (P10499 whole entry) above
T3 sequence (P63142 whole entry): as the sequence (P63142 whole entry) above
T5 sequence (P63142 whole entry): as above
T5 sequence (P10499 whole entry): as the sequence (P10499 whole entry) above
T5 sequence (P63142 whole entry): as the sequence (P63142 whole entry) above
T5 sequence (P10499 whole entry): as the sequence (P10499 whole entry) above
T1 sequence (P63142 whole entry): as the sequence (P63142 whole entry) above
T1 sequence (P63142 whole entry): as above
T1 sequence (P10499 whole entry): as the sequence (P10499 whole entry) above
T1 sequence (P10499 whole entry): as above
T7 sequence (P15385 whole entry): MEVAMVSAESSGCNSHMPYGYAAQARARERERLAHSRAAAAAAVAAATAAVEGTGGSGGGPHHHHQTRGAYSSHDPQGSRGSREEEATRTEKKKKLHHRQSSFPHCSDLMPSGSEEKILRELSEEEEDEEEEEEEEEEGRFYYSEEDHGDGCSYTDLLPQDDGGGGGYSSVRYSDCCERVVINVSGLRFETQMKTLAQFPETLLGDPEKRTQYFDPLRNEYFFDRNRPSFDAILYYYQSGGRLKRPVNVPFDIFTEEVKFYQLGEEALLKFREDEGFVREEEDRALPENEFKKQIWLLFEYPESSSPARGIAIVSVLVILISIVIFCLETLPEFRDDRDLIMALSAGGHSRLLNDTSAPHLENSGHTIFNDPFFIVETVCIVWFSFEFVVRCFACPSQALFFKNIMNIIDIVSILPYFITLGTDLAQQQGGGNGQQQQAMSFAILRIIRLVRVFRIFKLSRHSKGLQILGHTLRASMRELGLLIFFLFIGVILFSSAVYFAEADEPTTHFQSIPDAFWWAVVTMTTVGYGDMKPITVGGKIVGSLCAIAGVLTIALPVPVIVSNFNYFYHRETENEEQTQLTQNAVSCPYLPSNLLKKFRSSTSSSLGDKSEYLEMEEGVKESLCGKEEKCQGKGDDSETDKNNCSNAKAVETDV
T7 sequence (P17659 whole entry): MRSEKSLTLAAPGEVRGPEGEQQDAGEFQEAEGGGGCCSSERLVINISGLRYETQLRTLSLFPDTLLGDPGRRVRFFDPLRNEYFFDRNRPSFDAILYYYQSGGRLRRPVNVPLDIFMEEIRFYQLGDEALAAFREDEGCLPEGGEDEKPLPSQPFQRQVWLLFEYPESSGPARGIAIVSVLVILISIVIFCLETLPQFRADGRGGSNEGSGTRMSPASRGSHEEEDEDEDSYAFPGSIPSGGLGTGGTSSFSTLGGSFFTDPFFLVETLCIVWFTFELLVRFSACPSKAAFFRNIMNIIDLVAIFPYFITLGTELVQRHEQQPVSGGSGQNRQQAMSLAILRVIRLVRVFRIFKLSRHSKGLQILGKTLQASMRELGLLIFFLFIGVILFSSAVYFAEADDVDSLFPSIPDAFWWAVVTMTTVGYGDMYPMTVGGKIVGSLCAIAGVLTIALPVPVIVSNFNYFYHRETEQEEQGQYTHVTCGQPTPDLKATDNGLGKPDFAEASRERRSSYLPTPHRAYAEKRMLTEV
T7 sequence (P10499 whole entry): as the sequence (P10499 whole entry) above
T7 sequence (P63142 whole entry): as the sequence (P63142 whole entry) above

## CC[C@H](C)[C@@H]1NC(=O)[C@@H]2CSSC[C@H](NC(=O)[C@H](CCCCN)NC(=O)[C@@H](NC(=O)[C@H](CC(N)=O)NC(=O)[C@@H](NC(=O)[C@@H]3CCCN3C(=O)[C@@H](NC(=O)CN)C(C)C)[C@@H](C)CC)C(C)C)C(=O)N[C@@H]([C@@H](C)O)C(=O)NCC(=O)N[C@@H](CO)C(=O)N3CCC[C@H]3C(=O)N[C@@H](CCC(N)=O)C(=O)N[C@H]3CSSC[C@H](NC(=O)[C@H](CCCCN)NC(=O)CNC(=O)[C@H](CC(N)=O)NC1=O)C(=O)N[C@@H](Cc1c[nH]cn1)C(=O)N[C@H](C(=O)N[C@H](C(=O)N1CCC[C@H]1C(=O)N[C@@H](CCCCN)C(=O)O)[C@@H](C)O)CSSC[C@H](NC(=O)[C@@H]1CCCN1C(=O)[C@H](CCCCN)NC(=O)[C@H](CC(C)C)NC3=O)C(=O)N[C@@H](CCCCN)C(=O)N[C@@H](CC(=O)O)C(=O)N[C@@H](C)C(=O)NCC(=O)N[C@@H](CCSC)C(=O)N[C@@H](CCCNC(=N)N)C(=O)N[C@@H](Cc1ccccc1)C(=O)NCC(=O)N[C@@H](CCCCN)C(=O)N2 [AgTx1, Agitoxinl] (H-GVPINVKCTGSPQCLKPCKDAGMRFGKCINGKCHCTPK-OH; disulfide 8-28, 14-33, 18-35; N-terminus and C-terminus assumed)
[1]; read-out: IC50 AgTx1
  IC50: 0.005 ± 0.0005 µM
[2]; [7]
  IC50: > 1000 nM
[2]; diagonal oligomers, FIG. 12C
  sensitivity to AgTX1: virtually insensitive
[3]; read-out: IC50 AgTx1
  IC50: 0.039 ± 0.004 µM
[4]; read-out: IC50 AgTx1
  IC50: 0.005 ± 0.0004 µM
[5]; [7]
  IC50: ≥ 1000 nM

## CC[N+](CC)(CC)CC [TEA, tetraethylammonium]
[1]; read-out: IC50 TEA
  IC50: 6700 ± 2000 µM
[2]; [8]
  IC50: 760000 ± 100000 nM
[3]; read-out: IC50 TEA
  IC50: 12000 ± 1000 µM
[4]; read-out: IC50 TEA
  IC50: 9700 ± 1000 µM
[4]; forward and reverse adjacent channels versus diagonal channels, FIG. 12B
  fold lower affinity for TEA than the corresponding diagonals: ~11 fold
[5]; [8]
  IC50: 960000 ± 140000 nM

## CC[C@H](C)[C@@H]1NC(=O)[C@H](C)NC(=O)[C@H](CCC(=O)O)NC(=O)[C@H](CCCCN)NC(=O)[C@@H]2CSSC[C@@H](C(=O)N[C@@H](Cc3ccc(O)cc3)C(=O)N3CCC[C@H]3C(=O)O)NC(=O)[C@H](CCCCN)NC(=O)[C@@H]3CSSC[C@H](NC(=O)[C@H](CCC(=O)O)NC(=O)[C@@H]4CCCN4C(=O)[C@H](CO)NC(=O)CNC(=O)[C@H](CCCNC(=N)N)NC(=O)[C@@H](NC(=O)[C@H](CCCCN)NC(=O)[C@H](C)NC(=O)[C@H](CC(N)=O)NC(=O)[C@@H](NC(=O)[C@H](Cc4ccccc4)NC(=O)[C@@H](N)C(C)C)[C@@H](C)CC)CSSC[C@H](NC(=O)[C@H](CCCCN)NC(=O)CNC(=O)[C@H](C)NC(=O)[C@H](C)NC(=O)[C@H](CCCCN)NC(=O)CNC1=O)C(=O)N[C@@H](CCSC)C(=O)N[C@@H](CC(N)=O)C(=O)NCC(=O)N[C@@H](CCCCN)C(=O)N3)C(=O)N[C@@H](CC(C)C)C(=O)N1CCC[C@H]1C(=O)N[C@@H](CCCCN)C(=O)N2 [TsTxKα, tityustoxin-Kα] (H-VFINAKCRGSPECLPKCKEAIGKAAGKCMNGKCKCYP-OH; disulfide 7-28, 13-33, 17-35; N-terminus and C-terminus assumed)
[1]; read-out: IC50 TsTxKα
  IC50: 0.025 ± 0.007 µM
[2]; [9]
  IC50: > 1000 nM
[3]; read-out: IC50 TsTxKα
  IC50: 0.033 ± 0.003 µM
[4]; read-out: IC50 TsTxKα
  IC50: 0.026 ± 0.003 µM
[6]
  displacement of 125I-αDTX from the tetramer: readily displaced
[5]; [9]
  IC50: > 1000 nM

## DTXk: toxin, Kv1 channel blocker competing with 125I-αDTX (AAKYCKLPLRIGPCKRKIPSFYYKWKAKQCLPFDYSGCGGNANRFKTIEECRRTCVG; ends and bridges not checked; cysteine pairing not given here)
Kv1.4-1.6-1.1-1.2
  inhibition of IK, sensitivity difference between channels: significant sensitivity difference
[6]
  displacement of 125I-αDTX from the tetramer: readily displaced

## ShK: toxin competing with 125I-αDTX binding; parent of derivative ShK-Dap^22
[6]; 2.5 μM 125I-αDTX, transfected HEK cells, FIG. 4C
  antagonism of 125I-αDTX binding: to a greater extent than does the derivative ShK-Dap^22

## α-dendrotoxin (QPRRKLCILHRNPGRCYDKIPAFYYNQKKKQCERFDWSGCGGNSNRFKTIEECRRTCIG) [αDTX]
[6]
  displacement of 125I-αDTX from the tetramer: readily displaced

— patent publication US20110086389A1, “Compositions and Methods for Expressing In-Frame Multimeric Proteins” (priority 2008, published 2011)
